These results are taken from paper PMC2903749 (ACS medicinal chemistry letters, 2010).

For experiment [1], the target named is Glutamate racemase (GR) (Bacillus subtilis, UniProt P94556). Description: biochemical.
The target of experiment [2] is proline racemase. The settings on record: cited from earlier work.

pKi: −log10 of the molar value. Where two headings read alike, the source gives them in different places.

Glutamate racemase (GR), sequence (P94556 whole entry): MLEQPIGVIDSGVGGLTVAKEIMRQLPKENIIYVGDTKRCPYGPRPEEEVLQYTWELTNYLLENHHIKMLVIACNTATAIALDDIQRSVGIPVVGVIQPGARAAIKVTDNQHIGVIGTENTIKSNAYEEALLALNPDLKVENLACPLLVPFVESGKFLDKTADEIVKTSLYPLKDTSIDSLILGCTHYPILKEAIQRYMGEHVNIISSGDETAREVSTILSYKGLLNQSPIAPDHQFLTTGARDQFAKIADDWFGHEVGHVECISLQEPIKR

As for `NC(=O)CC[C@H](N)C(=O)O` [glutamine], the pKi in experiment [1] is 1.30.

`O=C(O)c1ccc[nH]1` [PYC, pyrrole-2-carboxylic acid]: the pKi in experiment [2] (read-out: Ki1, first of two binding states) was 5.34; in experiment [2] (read-out: Ki2, second of two binding states), 4.52.
